The test concerns CD2F1 mice, L1210 leukemia ip, survival T/C. The test is described as follows: NCI In Vivo Anticancer Drug Screen. Data for tumor model L1210 Leukemia (intraperitoneal) in CD2F1 (CDF1) mice. The following applies: higher = longer survival. An outline of the steps:
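Vehicle-treated tumor-bearing mice served as controls (C) for compound-treated mice (T). Reported figure is T divided by C.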

Where [1] appears, read: endpoint: mean survival time, dose: 100.0 mg/kg/injection, schedule: Q01DX009 (ip), vehicle: saline with Tween-80.
Where [2] appears, read: endpoint: mean survival time, dose: 100.0 mg/kg/injection, schedule: Q04DX003 (ip), vehicle: saline with Tween-80.
Where [3] appears, read: endpoint: mean survival time, dose: 200.0 mg/kg/injection, schedule: Q01DX009 (ip), vehicle: saline with Tween-80.
Where [4] appears, read: endpoint: mean survival time, dose: 200.0 mg/kg/injection, schedule: Q04DX003 (ip), vehicle: saline with Tween-80.
[5] abbreviates: endpoint: mean survival time, dose: 400.0 mg/kg/injection, schedule: Q01DX009 (ip), vehicle: saline with Tween-80.
Setting [6] is: endpoint: mean survival time, dose: 400.0 mg/kg/injection, schedule: Q04DX003 (ip), vehicle: saline with Tween-80.
Setting [7] is: endpoint: mean survival time, dose: 50.0 mg/kg/injection, schedule: Q04DX002 (ip), vehicle: saline with Tween-80.
Setting [8] is: endpoint: mean survival time, dose: 100.0 mg/kg/injection, schedule: Q04DX002 (ip), vehicle: saline with Tween-80.

Several values for one entry are separate records, joined by “and”; a condition that tells them apart may be missing. Identical values can stand only once. Inconclusive results and toxic doses are left out.

Turning to `O=C(O)/C(=C/c1ccc(O)cc1)c1ccccc1`, the T/C runs as follows: under setting [1], 88 % of control; under setting [2], 101 % of control; under setting [3], 93 % of control; under setting [4], 91 % of control; under setting [5], 87 % of control; under setting [6], 96 % of control.

Turning to `O=C(CBr)N1c2ccccc2Sc2ccc(C(F)(F)F)cc21`, the T/C is 100 % of control (endpoint: mean survival time, dose: 1.56 mg/kg/injection, schedule: Q01DX009 (ip), vehicle: other); 97 % of control (endpoint: mean survival time, dose: 3.13 mg/kg/injection, schedule: Q01DX009 (ip), vehicle: other); 102 % of control (endpoint: mean survival time, dose: 6.25 mg/kg/injection, schedule: Q01DX009 (ip), vehicle: other); 96 % of control (endpoint: mean survival time, dose: 12.5 mg/kg/injection, schedule: Q01DX009 (ip), vehicle: other); 102 % of control (endpoint: mean survival time, dose: 25.0 mg/kg/injection, schedule: Q01DX009 (ip), vehicle: other).

As for `O=c1cc[nH]c(=S)[nH]1.[Pt]`, the T/C is 94 % of control (endpoint: mean survival time, dose: 3.13 mg/kg/injection, schedule: Q04DX003 (ip), vehicle: distilled water + Tween-80); 97 % of control (endpoint: mean survival time, dose: 6.25 mg/kg/injection, schedule: Q04DX003 (ip), vehicle: distilled water + Tween-80); 94 % of control (endpoint: mean survival time, dose: 12.5 mg/kg/injection, schedule: Q04DX003 (ip), vehicle: distilled water + Tween-80); 97 % of control (endpoint: mean survival time, dose: 25.0 mg/kg/injection, schedule: Q04DX003 (ip), vehicle: distilled water + Tween-80); 97 % of control (endpoint: mean survival time, dose: 50.0 mg/kg/injection, schedule: Q04DX003 (ip), vehicle: distilled water + Tween-80); 103 % of control (endpoint: mean survival time, dose: 100.0 mg/kg/injection, schedule: Q04DX003 (ip), vehicle: distilled water + Tween-80). The T/C (endpoint: mean survival time, dose: 200.0 mg/kg/injection, schedule: Q04DX003 (ip), vehicle: distilled water + Tween-80) is 102 % of control.

Take `CC1=C(/C=C/C(C)(O)CC2=NC(C)(C)CO2)C(C)(C)CCC1` (stereo unspecified): the T/C (endpoint: mean survival time, dose: 25.0 mg/kg/injection, schedule: Q04DX002 (ip), vehicle: saline with Tween-80) is 101 % of control; the T/C under setting [7] is 93 % of control; the T/C under setting [8] was 93 % of control; the T/C under setting [2] is 91 % of control; the T/C under setting [6] is 86 % of control.

Consider `CC(O)C1OC(n2cnc3c(N)ncnc32)CC1N` (stereo unspecified), for which the T/C reads like this: (endpoint: mean survival time, dose: 12.5 mg/kg/injection, schedule: Q01DX005 (ip), vehicle: distilled water + Tween-80) 101 % of control; (endpoint: mean survival time, dose: 25.0 mg/kg/injection, schedule: Q01DX005 (ip), vehicle: distilled water + Tween-80) 103 % of control; (endpoint: mean survival time, dose: 50.0 mg/kg/injection, schedule: Q01DX005 (ip), vehicle: distilled water + Tween-80) 100 % of control; (endpoint: mean survival time, dose: 100.0 mg/kg/injection, schedule: Q01DX005 (ip), vehicle: distilled water + Tween-80) 100 % of control; (endpoint: mean survival time, dose: 200.0 mg/kg/injection, schedule: Q01DX005 (ip), vehicle: distilled water + Tween-80) 100 % of control.

Take `CCOC(=O)C1(Cc2ccccc2)SCCCS1`: the T/C is 105 % of control under setting [7]; 105 % of control under setting [8]; 105 % of control (endpoint: mean survival time, dose: 200.0 mg/kg/injection, schedule: Q04DX002 (ip), vehicle: saline with Tween-80).

In the case of `Cc1c(CNc2ccc(C(=O)NC(CC(=O)O)C(=O)O)cc2)ccc2nc(N)nc(N)c12` (stereo unspecified), the T/C runs as follows: (endpoint: mean survival time, dose: 0.18 mg/kg/injection, schedule: Q01DX009 (ip), vehicle: saline) 173 % of control; (endpoint: mean survival time, dose: 0.39 mg/kg/injection, schedule: Q01DX009 (ip), vehicle: saline) 121 % of control; (endpoint: mean survival time, dose: 0.78 mg/kg/injection, schedule: Q01DX009 (ip), vehicle: saline with Tween-80) 94 % of control; (endpoint: mean survival time, dose: 0.78 mg/kg/injection, schedule: Q01DX009 (ip), vehicle: saline) 107 % of control; (endpoint: mean survival time, dose: 1.56 mg/kg/injection, schedule: Q01DX009 (ip), vehicle: saline) 86 % of control and 95 % of control; (endpoint: mean survival time, dose: 3.12 mg/kg/injection, schedule: Q01DX009 (ip), vehicle: saline) 93 % of control. Further, the T/C (endpoint: mean survival time, dose: 6.25 mg/kg/injection, schedule: Q01DX009 (ip), vehicle: saline) is 92 % of control; the T/C (endpoint: mean survival time, dose: 25.0 mg/kg/injection, schedule: Q01DX001 (ip), vehicle: saline) is 170 % of control; the T/C (endpoint: mean survival time, dose: 50.0 mg/kg/injection, schedule: Q01DX001 (ip), vehicle: saline) was 117 % of control.

For the molecule `CCC(C)NCCO` (stereo unspecified), the T/C (endpoint: mean survival time, dose: 75.0 mg/kg/injection, schedule: Q01DX001 (ip), vehicle: saline) is 96 % of control; the T/C (endpoint: mean survival time, dose: 150.0 mg/kg/injection, schedule: Q01DX001 (ip), vehicle: saline) is 104 % of control; the T/C (endpoint: mean survival time, dose: 300.0 mg/kg/injection, schedule: Q01DX001 (ip), vehicle: saline) was 104 % of control.

For the molecule `CCCCCOS(=O)(=O)c1ccc(Cl)c([N+](=O)[O-])c1`, the T/C under setting [2] was 98 % of control.

Turning to `Cc1ccc(S(=O)(=O)NC(=O)C2C(=O)CC3(CCCCC3)CC2=O)cc1`, the T/C is 100 % of control (endpoint: median survival time, dose: 50.0 mg/kg/injection, schedule: Q01DX009 (ip), vehicle: Klucel (hydroxypropylcellulose) (HPC)) and 102 % of control (endpoint: median survival time, dose: 100.0 mg/kg/injection, schedule: Q01DX009 (ip), vehicle: Klucel (hydroxypropylcellulose) (HPC)).

Take `CC1(C)CCOC1=O`: the T/C was 105 % of control (endpoint: mean survival time, dose: 100.0 mg/kg/injection, schedule: Q01DX001 (ip), vehicle: saline); 103 % of control (endpoint: mean survival time, dose: 200.0 mg/kg/injection, schedule: Q01DX001 (ip), vehicle: saline); 103 % of control (endpoint: mean survival time, dose: 400.0 mg/kg/injection, schedule: Q01DX001 (ip), vehicle: saline).

Consider `O=C(O)Cc1ccccc1C(=O)O.[NH-]C1CCCCC1[NH-].[Pt+2]`, for which the T/C reads like this: (endpoint: median survival time, dose: 3.12 mg/kg/injection, schedule: Q04DX003 (ip), vehicle: saline) 102 % of control and 108 % of control; (endpoint: median survival time, dose: 6.25 mg/kg/injection, schedule: Q04DX003 (ip), vehicle: saline) 103 % of control and 108 % of control; (endpoint: median survival time, dose: 12.5 mg/kg/injection, schedule: Q04DX003 (ip), vehicle: saline) 109 % of control and 110 % of control; (endpoint: median survival time, dose: 25.0 mg/kg/injection, schedule: Q04DX003 (ip), vehicle: saline) 105 % of control and 109 % of control; (endpoint: median survival time, dose: 50.0 mg/kg/injection, schedule: Q04DX003 (ip), vehicle: saline) 117 % of control and 112 % of control.

As to `Cc1cc(=O)c2c(=O)[nH][nH]c2[nH]1`, the T/C by setting is: under setting [1], 98 % of control; under setting [3], 104 % of control.

Turning to `CCSc1ncc(Br)c(Sc2nc(N)nc3nc[nH]c23)n1`, the T/C (endpoint: mean survival time, dose: 6.25 mg/kg/injection, schedule: Q01DX Z (ip), vehicle: carboxymethylcellulose (CMC)) was 154 % of control; the T/C (endpoint: mean survival time, dose: 12.5 mg/kg/injection, schedule: Q01DX Z (ip), vehicle: carboxymethylcellulose (CMC)) was 100 % of control; the T/C (endpoint: mean survival time, dose: 25.0 mg/kg/injection, schedule: Q01DX Z (ip), vehicle: carboxymethylcellulose (CMC)) was 98 % of control; the T/C (endpoint: mean survival time, dose: 50.0 mg/kg/injection, schedule: Q01DX Z (ip), vehicle: carboxymethylcellulose (CMC)) was 87 % of control.

Regarding `CN1C(=O)C2(Cc3cn(C45CC67SSC(CO)(C(=O)N6C4Nc4ccccc45)N(C)C7=O)c4ccccc34)SSC1(CO)C(=O)N2C` (stereo unspecified), the T/C (endpoint: mean survival time, dose: 0.31 mg/kg/injection, schedule: Q01DX009 (ip), vehicle: Klucel (hydroxypropylcellulose) (HPC)) is 93 % of control; the T/C (endpoint: mean survival time, dose: 0.62 mg/kg/injection, schedule: Q01DX009 (ip), vehicle: Klucel (hydroxypropylcellulose) (HPC)) was 100 % of control; the T/C (endpoint: mean survival time, dose: 1.25 mg/kg/injection, schedule: Q01DX009 (ip), vehicle: Klucel (hydroxypropylcellulose) (HPC)) was 100 % of control.

Turning to `O=P(Cl)(Oc1cccc2c(OP(=O)(Cl)N(CCCl)CCCl)cccc12)N(CCCl)CCCl` (stereo unspecified), the T/C is 100 % of control (endpoint: mean survival time, dose: 31.25 mg/kg/injection, schedule: Q01DX001 (ip), vehicle: distilled water + Tween-80); 101 % of control (endpoint: mean survival time, dose: 62.5 mg/kg/injection, schedule: Q01DX001 (ip), vehicle: distilled water + Tween-80); 91 % of control (endpoint: mean survival time, dose: 125.0 mg/kg/injection, schedule: Q01DX001 (ip), vehicle: distilled water + Tween-80); 95 % of control (endpoint: mean survival time, dose: 250.0 mg/kg/injection, schedule: Q01DX001 (ip), vehicle: distilled water + Tween-80); 92 % of control (endpoint: mean survival time, dose: 500.0 mg/kg/injection, schedule: Q01DX001 (ip), vehicle: distilled water + Tween-80).

As to `C(=N/N=C/c1ccc2c(c1)OCO2)/c1ccco1`, the T/C is 93 % of control under setting [2]; 90 % of control under setting [3]; 96 % of control under setting [4]; 86 % of control under setting [5]; 95 % of control under setting [6].

For `c1ccc(Sc2cccc3ccccc23)cc1`, the T/C by setting is: under setting [2], 102 % of control; under setting [4], 93 % of control; under setting [6], 91 % of control.

The record behind these values is PubChem BioAssay AID256 (DTP/NCI, 2004).
